The structures appear in SMILES notation. pIC50: −log10 of the molar value.

Data set [1] in a line: Inhibition of PKA (unknown origin) by mobility shift assay. Details: species or system Homo sapiens.
For data set [2], the target named is T1, Tyrosine-protein kinase JAK3 (Homo sapiens, UniProt P52333).
T1 sequence (P52333 whole entry): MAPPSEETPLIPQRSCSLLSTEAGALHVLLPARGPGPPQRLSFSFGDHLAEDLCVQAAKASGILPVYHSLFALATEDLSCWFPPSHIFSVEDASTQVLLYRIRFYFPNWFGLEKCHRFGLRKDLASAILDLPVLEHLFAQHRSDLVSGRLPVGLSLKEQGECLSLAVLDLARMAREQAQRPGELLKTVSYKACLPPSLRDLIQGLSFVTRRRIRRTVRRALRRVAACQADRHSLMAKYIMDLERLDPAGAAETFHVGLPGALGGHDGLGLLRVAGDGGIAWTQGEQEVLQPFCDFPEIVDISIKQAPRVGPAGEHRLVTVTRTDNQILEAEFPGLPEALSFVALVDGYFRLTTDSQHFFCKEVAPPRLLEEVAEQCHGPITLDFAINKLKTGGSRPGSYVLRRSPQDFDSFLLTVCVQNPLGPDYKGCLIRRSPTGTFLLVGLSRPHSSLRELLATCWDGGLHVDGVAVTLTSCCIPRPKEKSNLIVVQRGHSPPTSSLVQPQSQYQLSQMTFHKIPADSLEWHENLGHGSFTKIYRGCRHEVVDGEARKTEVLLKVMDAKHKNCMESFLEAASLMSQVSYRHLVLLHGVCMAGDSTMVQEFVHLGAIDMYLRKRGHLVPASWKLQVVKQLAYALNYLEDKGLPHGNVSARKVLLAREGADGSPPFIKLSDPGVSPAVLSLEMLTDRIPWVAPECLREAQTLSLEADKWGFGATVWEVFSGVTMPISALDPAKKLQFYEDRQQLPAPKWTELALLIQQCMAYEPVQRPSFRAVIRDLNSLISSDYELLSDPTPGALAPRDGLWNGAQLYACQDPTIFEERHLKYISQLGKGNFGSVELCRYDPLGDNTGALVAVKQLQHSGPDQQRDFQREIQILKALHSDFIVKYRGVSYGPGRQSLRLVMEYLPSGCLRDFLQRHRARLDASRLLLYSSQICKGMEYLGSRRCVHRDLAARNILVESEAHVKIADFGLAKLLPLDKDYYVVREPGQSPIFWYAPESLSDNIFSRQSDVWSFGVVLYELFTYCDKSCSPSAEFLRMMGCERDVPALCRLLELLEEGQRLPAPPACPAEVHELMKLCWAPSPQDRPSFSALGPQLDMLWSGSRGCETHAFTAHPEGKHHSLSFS
Briefly: Inhibition of JAK3 (unknown origin) by mobility shift assay.

Data set [3] addresses Focal adhesion kinase 1 (Homo sapiens) (UniProt Q05397). Briefly: Inhibition of FAK (unknown origin) at 50 ug/ml by Lanthascreen assay relative to control. In general terms: In TR-FRET formats the signal depends on donor and acceptor labels being close together.
Data set [4] deals with Serine/threonine-protein kinase B-raf (Homo sapiens) (UniProt P15056). Briefly: Inhibition of BRAF (unknown origin) at 50 ug/ml by Lanthascreen assay relative to control.
For the next data set, the species on record is Homo sapiens. Briefly: Inhibition of PKA (unknown origin) at 50 ug/ml by mobility shift assay relative to control.
Data set [5] addresses ALK tyrosine kinase receptor (Homo sapiens) (UniProt Q9UM73). Briefly: Inhibition of ALK (unknown origin) at 50 ug/ml by mobility shift assay relative to control.
Data set [6] concerns the target T2, JAK3 (Tyrosine-protein kinase JAK3) (Homo sapiens, UniProt P52333).
T2 sequence (P52333 whole entry): T1 sequence (P52333 whole entry)
Briefly: Inhibition of JAK3 (unknown origin) at 50 ug/ml by mobility shift assay relative to control. The note with it: JAK3 kinase (single protein, unknown origin).

For data set [7], the target named is T3, Tyrosine-protein kinase ZAP-70 (Homo sapiens) (UniProt P43403).
T3 sequence (whole entry): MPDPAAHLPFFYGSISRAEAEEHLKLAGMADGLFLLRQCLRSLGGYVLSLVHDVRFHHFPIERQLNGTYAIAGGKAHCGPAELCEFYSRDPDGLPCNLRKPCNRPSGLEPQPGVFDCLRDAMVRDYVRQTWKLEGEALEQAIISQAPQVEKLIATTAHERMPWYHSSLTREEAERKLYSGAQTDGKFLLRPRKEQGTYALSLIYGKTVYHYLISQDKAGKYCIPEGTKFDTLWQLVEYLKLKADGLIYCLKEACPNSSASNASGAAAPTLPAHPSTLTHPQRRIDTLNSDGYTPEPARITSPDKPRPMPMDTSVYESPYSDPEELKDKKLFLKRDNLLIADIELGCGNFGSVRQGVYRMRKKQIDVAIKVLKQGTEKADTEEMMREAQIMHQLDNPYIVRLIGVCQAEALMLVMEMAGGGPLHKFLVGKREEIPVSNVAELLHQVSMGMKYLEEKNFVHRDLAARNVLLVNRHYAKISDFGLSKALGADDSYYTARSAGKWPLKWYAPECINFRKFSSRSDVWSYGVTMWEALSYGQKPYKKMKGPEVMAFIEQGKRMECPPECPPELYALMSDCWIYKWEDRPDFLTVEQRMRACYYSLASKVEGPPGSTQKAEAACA
Briefly: Inhibition of ZAP70 (unknown origin) at 50 ug/ml by mobility shift assay relative to control.

Data set [8] addresses Proto-oncogene tyrosine-protein kinase Src (Homo sapiens) (UniProt P12931). Briefly: Inhibition of SRC (unknown origin) at 50 ug/ml by mobility shift assay relative to control.
Data set [9] addresses RAC-alpha serine/threonine-protein kinase (Homo sapiens) (UniProt P31749). Briefly: Inhibition of AKT1 (unknown origin) at 50 ug/ml by mobility shift assay relative to control.
In data set [10] the target is Glycogen synthase kinase-3 beta (Homo sapiens) (UniProt P49841). Briefly: Inhibition of GSK3b (unknown origin) at 50 ug/ml by mobility shift assay relative to control.
Data set [11] deals with Serine/threonine-protein kinase pim-1 (Homo sapiens) (UniProt P11309). Briefly: Inhibition of PIM1 (unknown origin) at 50 ug/ml by mobility shift assay relative to control.
Data set [12] has as its target T4, 3-phosphoinositide-dependent protein kinase 1 (Homo sapiens) (UniProt O15530).
T4 sequence (whole entry): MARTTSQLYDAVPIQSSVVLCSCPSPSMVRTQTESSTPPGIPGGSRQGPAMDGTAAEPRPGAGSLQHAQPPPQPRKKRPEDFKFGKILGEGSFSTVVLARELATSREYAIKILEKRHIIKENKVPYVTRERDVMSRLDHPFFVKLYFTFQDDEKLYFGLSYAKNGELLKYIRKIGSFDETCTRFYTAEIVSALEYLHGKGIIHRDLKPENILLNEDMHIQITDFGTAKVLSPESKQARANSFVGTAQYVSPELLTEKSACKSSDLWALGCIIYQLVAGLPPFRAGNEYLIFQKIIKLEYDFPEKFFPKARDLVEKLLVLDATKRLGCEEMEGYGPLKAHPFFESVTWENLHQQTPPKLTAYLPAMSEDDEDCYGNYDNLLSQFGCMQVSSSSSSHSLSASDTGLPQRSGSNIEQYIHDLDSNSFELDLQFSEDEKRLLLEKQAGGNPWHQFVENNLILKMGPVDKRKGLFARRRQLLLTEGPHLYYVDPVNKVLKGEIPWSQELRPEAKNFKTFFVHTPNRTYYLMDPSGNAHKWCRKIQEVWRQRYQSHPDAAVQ
Briefly: Inhibition of PDK1 (unknown origin) at 50 ug/ml by mobility shift assay relative to control.

Data set [13] deals with Tyrosine-protein kinase SYK (Homo sapiens) (UniProt P43405). Briefly: Inhibition of SYK (unknown origin) at 50 ug/ml by mobility shift assay relative to control.
Data set [14] addresses Protein kinase C theta (Homo sapiens) (UniProt Q04759). Briefly: Inhibition of PKCtheta (unknown origin) at 50 ug/ml by mobility shift assay relative to control.

Sequence of Serine/threonine-protein kinase pim-1 (Homo sapiens) (P11309 whole entry, looked up): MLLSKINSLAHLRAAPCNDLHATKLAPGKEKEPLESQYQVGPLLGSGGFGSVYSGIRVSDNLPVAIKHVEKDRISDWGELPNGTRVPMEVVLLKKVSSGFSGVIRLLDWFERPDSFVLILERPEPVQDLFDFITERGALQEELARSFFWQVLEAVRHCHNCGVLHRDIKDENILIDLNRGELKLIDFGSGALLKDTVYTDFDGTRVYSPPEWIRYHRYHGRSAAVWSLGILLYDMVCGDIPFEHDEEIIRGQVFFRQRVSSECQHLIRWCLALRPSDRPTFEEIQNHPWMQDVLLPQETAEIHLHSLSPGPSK
Sequence of ALK tyrosine kinase receptor (Homo sapiens) (Q9UM73 19-1620 limits assumed): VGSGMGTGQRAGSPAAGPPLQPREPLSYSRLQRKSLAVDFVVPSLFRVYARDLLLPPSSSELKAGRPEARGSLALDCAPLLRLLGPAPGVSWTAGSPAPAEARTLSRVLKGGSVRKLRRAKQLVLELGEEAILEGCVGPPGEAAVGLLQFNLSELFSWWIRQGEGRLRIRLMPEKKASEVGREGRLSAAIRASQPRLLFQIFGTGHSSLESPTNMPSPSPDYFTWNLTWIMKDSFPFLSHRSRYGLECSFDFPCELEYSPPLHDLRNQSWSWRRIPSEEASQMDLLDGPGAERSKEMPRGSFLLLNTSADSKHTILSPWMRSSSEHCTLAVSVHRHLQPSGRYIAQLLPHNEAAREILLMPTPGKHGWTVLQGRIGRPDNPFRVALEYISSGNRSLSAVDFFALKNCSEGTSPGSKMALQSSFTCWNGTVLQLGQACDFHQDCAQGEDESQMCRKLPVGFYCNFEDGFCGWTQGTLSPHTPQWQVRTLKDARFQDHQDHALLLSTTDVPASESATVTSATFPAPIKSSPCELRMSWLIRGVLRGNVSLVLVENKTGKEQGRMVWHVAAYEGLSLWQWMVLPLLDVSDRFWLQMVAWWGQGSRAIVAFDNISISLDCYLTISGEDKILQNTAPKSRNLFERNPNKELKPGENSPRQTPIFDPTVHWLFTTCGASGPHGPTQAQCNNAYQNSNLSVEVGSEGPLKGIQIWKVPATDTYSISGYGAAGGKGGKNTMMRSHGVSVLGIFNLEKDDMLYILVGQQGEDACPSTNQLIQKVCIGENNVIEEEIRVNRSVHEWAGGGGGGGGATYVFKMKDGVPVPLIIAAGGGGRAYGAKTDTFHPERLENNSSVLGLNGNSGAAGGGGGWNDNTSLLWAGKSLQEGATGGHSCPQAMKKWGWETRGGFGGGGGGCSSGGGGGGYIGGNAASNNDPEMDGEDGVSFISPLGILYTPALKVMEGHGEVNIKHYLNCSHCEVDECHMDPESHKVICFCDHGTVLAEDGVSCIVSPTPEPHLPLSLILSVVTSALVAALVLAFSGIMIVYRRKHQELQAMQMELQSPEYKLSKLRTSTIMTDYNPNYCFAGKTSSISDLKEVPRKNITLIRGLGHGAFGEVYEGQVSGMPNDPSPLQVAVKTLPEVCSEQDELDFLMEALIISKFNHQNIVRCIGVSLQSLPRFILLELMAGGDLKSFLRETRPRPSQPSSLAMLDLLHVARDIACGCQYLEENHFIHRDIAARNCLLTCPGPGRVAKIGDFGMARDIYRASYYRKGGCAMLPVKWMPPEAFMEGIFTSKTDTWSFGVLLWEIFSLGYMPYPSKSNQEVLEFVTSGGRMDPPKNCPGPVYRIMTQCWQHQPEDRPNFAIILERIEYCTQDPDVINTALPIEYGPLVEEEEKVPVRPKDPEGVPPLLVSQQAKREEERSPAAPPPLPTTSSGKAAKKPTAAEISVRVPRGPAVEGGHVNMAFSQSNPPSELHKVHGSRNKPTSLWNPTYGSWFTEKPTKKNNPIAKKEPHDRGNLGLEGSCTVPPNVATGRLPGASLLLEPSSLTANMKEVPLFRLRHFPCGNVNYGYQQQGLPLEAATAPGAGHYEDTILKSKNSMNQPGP
Sequence of RAC-alpha serine/threonine-protein kinase (Homo sapiens) (P31749 whole entry): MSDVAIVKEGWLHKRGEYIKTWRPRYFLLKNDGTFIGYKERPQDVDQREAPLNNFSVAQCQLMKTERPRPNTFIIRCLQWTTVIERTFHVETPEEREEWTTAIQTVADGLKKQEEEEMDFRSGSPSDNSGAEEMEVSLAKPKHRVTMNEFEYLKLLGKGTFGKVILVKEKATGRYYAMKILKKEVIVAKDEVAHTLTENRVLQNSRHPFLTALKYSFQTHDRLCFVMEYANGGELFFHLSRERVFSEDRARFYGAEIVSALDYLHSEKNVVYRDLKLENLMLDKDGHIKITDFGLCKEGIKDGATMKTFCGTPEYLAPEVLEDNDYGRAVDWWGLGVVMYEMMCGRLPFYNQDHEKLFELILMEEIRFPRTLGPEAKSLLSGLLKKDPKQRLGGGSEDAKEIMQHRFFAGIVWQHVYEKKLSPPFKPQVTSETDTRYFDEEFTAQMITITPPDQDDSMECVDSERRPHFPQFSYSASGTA
Sequence of Serine/threonine-protein kinase B-raf (Homo sapiens) (P15056 whole entry): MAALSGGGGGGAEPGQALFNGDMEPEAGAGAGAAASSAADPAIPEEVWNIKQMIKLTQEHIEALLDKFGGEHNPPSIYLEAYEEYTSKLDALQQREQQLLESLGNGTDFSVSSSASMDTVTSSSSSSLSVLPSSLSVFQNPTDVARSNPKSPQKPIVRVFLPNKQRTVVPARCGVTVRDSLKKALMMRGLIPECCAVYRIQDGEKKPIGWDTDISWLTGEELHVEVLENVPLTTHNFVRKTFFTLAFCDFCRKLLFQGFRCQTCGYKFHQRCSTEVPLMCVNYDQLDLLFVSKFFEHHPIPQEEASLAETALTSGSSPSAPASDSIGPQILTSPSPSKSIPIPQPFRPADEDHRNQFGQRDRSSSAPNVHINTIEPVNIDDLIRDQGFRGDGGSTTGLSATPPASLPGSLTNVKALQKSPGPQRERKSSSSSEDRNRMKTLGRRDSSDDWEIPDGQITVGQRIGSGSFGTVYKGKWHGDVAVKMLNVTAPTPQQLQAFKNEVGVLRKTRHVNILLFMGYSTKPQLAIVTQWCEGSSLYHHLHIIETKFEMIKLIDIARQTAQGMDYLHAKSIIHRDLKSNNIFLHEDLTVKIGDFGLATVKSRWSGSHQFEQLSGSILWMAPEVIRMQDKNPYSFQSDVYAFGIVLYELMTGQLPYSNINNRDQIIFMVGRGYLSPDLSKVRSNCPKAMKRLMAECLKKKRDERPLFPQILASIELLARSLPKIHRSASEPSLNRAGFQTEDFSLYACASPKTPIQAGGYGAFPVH
Sequence of Proto-oncogene tyrosine-protein kinase Src (Homo sapiens) (P12931 2-536 limits assumed): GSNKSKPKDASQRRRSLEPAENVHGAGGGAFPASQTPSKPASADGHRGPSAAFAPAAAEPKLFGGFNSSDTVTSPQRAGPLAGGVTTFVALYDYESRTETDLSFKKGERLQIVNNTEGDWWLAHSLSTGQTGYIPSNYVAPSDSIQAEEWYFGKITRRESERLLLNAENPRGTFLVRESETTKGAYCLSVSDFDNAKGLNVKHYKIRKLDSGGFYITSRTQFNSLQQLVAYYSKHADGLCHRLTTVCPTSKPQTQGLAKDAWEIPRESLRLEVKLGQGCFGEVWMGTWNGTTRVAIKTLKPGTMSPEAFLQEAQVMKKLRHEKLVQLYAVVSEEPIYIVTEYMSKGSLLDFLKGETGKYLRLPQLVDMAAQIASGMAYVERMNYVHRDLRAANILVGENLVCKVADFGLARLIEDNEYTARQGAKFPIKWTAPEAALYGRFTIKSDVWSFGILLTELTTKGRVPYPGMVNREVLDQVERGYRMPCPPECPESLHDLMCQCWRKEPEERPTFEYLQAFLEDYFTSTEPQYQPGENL
Sequence of Focal adhesion kinase 1 (Homo sapiens) (Q05397 2-1052 limits assumed): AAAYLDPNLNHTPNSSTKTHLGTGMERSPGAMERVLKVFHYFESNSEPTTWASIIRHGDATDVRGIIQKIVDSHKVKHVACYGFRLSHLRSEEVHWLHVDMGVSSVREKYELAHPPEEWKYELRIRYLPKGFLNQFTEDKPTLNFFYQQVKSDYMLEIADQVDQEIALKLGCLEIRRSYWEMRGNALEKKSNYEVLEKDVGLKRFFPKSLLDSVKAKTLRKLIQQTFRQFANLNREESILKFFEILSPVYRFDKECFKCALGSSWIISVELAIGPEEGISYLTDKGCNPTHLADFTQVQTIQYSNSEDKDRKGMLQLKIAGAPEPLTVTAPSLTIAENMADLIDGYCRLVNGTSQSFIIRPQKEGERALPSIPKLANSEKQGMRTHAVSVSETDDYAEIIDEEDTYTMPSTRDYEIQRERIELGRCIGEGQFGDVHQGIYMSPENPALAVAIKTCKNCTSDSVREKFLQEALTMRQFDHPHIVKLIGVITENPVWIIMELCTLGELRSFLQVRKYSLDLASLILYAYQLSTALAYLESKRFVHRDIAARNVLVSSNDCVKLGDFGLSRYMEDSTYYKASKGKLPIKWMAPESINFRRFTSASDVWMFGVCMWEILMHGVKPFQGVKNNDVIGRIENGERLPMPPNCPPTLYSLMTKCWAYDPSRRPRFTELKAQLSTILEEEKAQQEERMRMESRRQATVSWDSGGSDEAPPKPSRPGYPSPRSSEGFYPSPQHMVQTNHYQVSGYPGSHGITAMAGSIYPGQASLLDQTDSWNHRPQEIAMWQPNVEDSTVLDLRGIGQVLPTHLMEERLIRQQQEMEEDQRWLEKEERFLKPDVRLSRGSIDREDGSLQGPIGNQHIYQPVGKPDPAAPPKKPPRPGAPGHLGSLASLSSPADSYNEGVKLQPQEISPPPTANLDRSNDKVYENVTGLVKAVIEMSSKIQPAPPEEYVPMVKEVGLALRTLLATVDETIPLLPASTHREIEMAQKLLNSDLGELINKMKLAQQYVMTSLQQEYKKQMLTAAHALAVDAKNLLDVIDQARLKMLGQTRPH

Broadly, the pIC50 is the IC50 on a negative log10 scale, so that one unit is a factor of ten. In the case of `CN[C@@H]1C[C@H]2O[C@@](C)([C@@H]1OC)n1c3ccccc3c3c4c(c5c6ccccc6n2c5c31)C(=O)NC4`, the pIC50 in [1] is 8.66.
Regarding `C=C(C)c1ccc2c(c1)CC[C@H]1[C@@](CO)(C(=O)O)CCC[C@]21C`, the pIC50 in [2] was less than 4.00.
The same measure, in the same setting: the value for `CC(C)c1ccc2c(c1)CC[C@H]1[C@@](CO)(C(=O)O)CCC[C@]21C` was less than 4.00; that for `CC(=O)c1ccc2c(c1)CC[C@H]1[C@@](CO)(C(=O)O)CCC[C@]21C` was less than 4.00.
The same measure, in the same setting: the figure for `CC(C)(O)c1ccc2c(c1)CC[C@H]1[C@](C)(C(=O)O)CCC[C@]21C` is less than 4.00; for `CC(C)c1cc2c(cc1O)[C@@]1(C)CCC[C@@](C)(C=O)[C@@H]1CC2` [18-OXOFERRUGINOL] it is less than 4.00.
The term inhibition denotes the change of the read-out against control, counted positive when it falls. In the case of `CC(C)c1ccc2c(c1)CC[C@H]1[C@](C)(C(=O)O)CCC[C@]21C` [DEHYDROABIETIC ACID], the inhibition in data set [3] is 67.1%; in data set [4], -7.3%; in the data set filed under Homo sapiens it was 69.9%; in data set [5], 17.6%; in [7], 52.5%; in [8], 61.2%. The inhibition in data set [9] was 53.6%; in data set [10] it was 20.1%; in data set [11] it was 10.7%; in data set [12], 46.1%; in data set [13], 81%; in data set [14] it was 0.9%. Besides, the inhibition at 50 ug/ml in data set [6] was found to be 74.9%. Moreover, in data set [2], the pIC50 was less than 4.00.

The values above are taken from ChEMBL document CHEMBL4251714, “Isolation, Characterization, and Structure-Activity Relationship Analysis of Abietane Diterpenoids from Callicarpa bodinieri as Spleen Tyrosine Kinase Inhibitors” (J Nat Prod, 2018).
